Assay results taken from US9388199B2, “Pyrrolidine derivatives and their use as complement pathway modulators” (priority 2012, dated 2016).
Structures can show the parent of a compound that is named as a salt.

Molecular target: Recombinant human factor D (Homo sapiens (Human), UniProt P00746)
Test: Human Complement Factor D Assay: Method 1
Type: biochemical
Settings: 10 nM factor D, substrate Z-Lys-thiobenzyl, fluorescence readout, read-out: IC50 (μM), Factor D inhibition
Experimental: Human Complement Factor D Assay: Method 1
Recombinant human factor D (expressed in E. coli and purified using standard methods) at 10 nM concentration is incubated with test compound at various concentrations for 1 hour at room temperature in 0.1 M Hepes buffer, pH 7.5, containing 1 mM MgCl2, 1 M NaCl and 0.05% CHAPS. A synthetic substrate Z-Lys-thiobenzyl and 2,4-dinitrobenzenesulfonyl-fluoresceine are added to final concentrations of 200 μM and 25 μM, respectively. The increase in fluorescence is recorded at excitation of 485 nm and emission at 535 nm in a microplate spectrofluorimeter. IC50 values are calculated from percentage of inhibition of complement factor D-activity as a function of test compound concentration.

Recombinant human factor D, sequence (P00746 26-253): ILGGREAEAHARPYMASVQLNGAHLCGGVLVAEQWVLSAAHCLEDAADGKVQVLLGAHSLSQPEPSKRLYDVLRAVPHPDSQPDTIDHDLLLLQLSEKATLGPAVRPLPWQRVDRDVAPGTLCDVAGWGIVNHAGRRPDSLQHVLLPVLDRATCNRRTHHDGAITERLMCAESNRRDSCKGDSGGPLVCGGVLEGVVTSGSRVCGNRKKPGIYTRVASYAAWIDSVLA

| Compound | IC50 |
| --- | --- |
| CO[C@H]1[C@@H](C(=O)NCCC(C)(C)C)N(C(=O)Cn2nc(C(N)=O)c3cc(C)ncc32)C[C@@H]1F [Example 4, 1-{2-[(2S,3S,4S)-2-(3,3-Dimethyl-butylcarbamoyl)-4-fluoro-3-methoxy-pyrrolidin-1-yl]-2-oxo-ethyl}-5-methyl-1H-pyrazolo[3,4-c]pyridine-3-carboxylic acid amide] | 0.161 µM |
| CC(=O)c1nn(CC(=O)N2[C@@H]3C[C@@H]3C[C@H]2C(=O)NCCC(C)(C)C)c2cnccc12 [Example 7, (1R,3S,5R)-2-[2-(3-Acetyl-pyrazolo[3,4-c]pyridin-1-yl)-acetyl]-2-aza-bicyclo[3.1.0] hexane-3-carboxylic acid (3,3-dimethyl-butyl)-amide] | 0.068 µM |
| CC(C)(O)CCNC(=O)[C@@H]1C[C@H]2C[C@H]2N1C(=O)Cn1nc(C(N)=O)c2ccncc21 [Example 10, 1-{2-[(1R,3S,5R)-3-(3-Hydroxy-3-methyl-butylcarbamoyl)-2-aza-bicyclo[3.1.0]hex-2-yl]-2-oxo-ethyl}-1H-pyrazolo[3,4-c] pyridine-3-carboxylic acid amide trifluoroacetate] | 5.67 µM |
| CO[C@H]1[C@@H](C(=O)NCCC(C)(C)C)N(C(=O)Cn2nc(C(N)=O)c3ccccc32)C[C@@H]1F [Example 3, 1-{2-[(2S,3S,4S)-2-(3,3-Dimethyl-butylcarbamoyl)-4-fluoro-3-methoxy-pyrrolidin-1-yl]-2-oxo-ethyl}-1H-indazole-3-carboxylic acid amide] | 0.103 µM |
| CC(C)(C)CCNC(=O)[C@@H]1C[C@H]2C[C@H]2N1C(=O)Nc1cn(C(N)=O)c2ccccc12 [Example 21, (1R,3S,5R)-2-Aza-bicyclo[3.1.0]hexane-2,3-dicarboxylic acid 2-[(1-carbamoyl-1H-indol-3-yl)-amide]3-[(3,3-dimethyl-butyl)-amide]] | 0.058 µM |
| C[C@H](CC(C)(C)C)NC(=O)[C@@H]1C[C@H]2C[C@H]2N1C(=O)Cn1nc(C(N)=O)c2ccccc21 [Example 36, 1-{2-Oxo-2-[(1R,3S,5R)-3-((R)-1,3,3-trimethyl-butylcarbamoyl)-2-aza-bicyclo[3.1.0]hex-2-yl]-ethyl}-1H-indazole-3-carboxylic acid amide] | 0.113 µM |
| CC(=O)c1nn(CC(=O)N2[C@@H]3C[C@@H]3C[C@H]2C(=O)NCC[Si](C)(C)C)c2cnccc12 [Example 43, (1R,3S,5R)-2-[2-(3-Acetyl-pyrazolo[3,4-c]pyridin-1-yl)-acetyl]-2-aza-bicyclo[3.1.0]hexane-3-carboxylic acid (2-trimethylsilanyl-ethyl)-amide] | 0.323 µM |
| CCNC(=O)[C@@H]1C[C@H]2C[C@H]2N1C(=O)Nc1cn(C(N)=O)c2ccccc12 [Example 24, (1R,3S,5R)-2-Aza-bicyclo [3.1.0]hexane-2,3-dicarboxylic acid 2-[(1-carbamoyl-1H-indol-3-yl)-amide] 3-ethylamide] | 1.75 µM |
| CC(=O)c1nn(CC(=O)N2[C@@H]3C[C@@H]3C[C@H]2C(=O)NCCC(C)(C)C)c2ncccc12 [Example 29, (1R,3S,5R)-2-[2-(3-Acetyl-pyrazolo[3,4-b]pyridin-1-yl)-acetyl]-2-aza-bicyclo[3.1.0] hexane-3-carboxylic acid (3,3-dimethyl-butyl)-amide] | 0.227 µM |
| C[Si](C)(C)CCNC(=O)[C@@H]1C[C@H]2C[C@H]2N1C(=O)Cn1nc(C(N)=O)c2ccccc21 [Example 28, 1-{2-oxo-2-[(1R,3S,5R)-3-(2-trimethylsilanyl-ethylcarbamoyl)-2-aza-bicyclo[3.1.0]hex-2-yl]-ethyl}-1H-indazole-3-carboxylic acid amide] | 0.065 µM |
| CC(C)(C)CCNC(=O)[C@@H]1C[C@H]2C[C@H]2N1C(=O)Cn1nc(C(N)=O)c2ccccc21 [Example 1, 1-{2-[(1R,3S,5R)-3-(3,3-Dimethyl-butylcarbamoyl)-2-aza-bicyclo[3.1.0]hex-2-yl]-2-oxo-ethyl}-1H-indazole-3-carboxylic acid amide] | 0.061 µM |
| CCNC(=O)[C@@H]1C[C@H]2C[C@H]2N1C(=O)Cn1nc(C(N)=O)c2cc(OCc3ncccn3)ccc21 [Example 18, 1-[2-((1R,3S,5R)-3-Ethylcarbamoyl-2-aza-bicyclo[3.1.0]hex-2-yl)-2-oxo-ethyl]-5-(pyrimidin-2-ylmethoxy)-1H-indazole-3-carboxylic acid amide] | 2.89 µM |
| CC[C@@H](C)NC(=O)[C@@H]1C[C@H]2C[C@H]2N1C(=O)Cn1nc(C(C)=O)c2cc(OCc3ncccn3)ccc21 [Example 17, (1R,3S,5R)-2-{2-[3-Acetyl-5-(pyrimidin-2-ylmethoxy)-indazol-1-yl]-acetyl}-2-aza-bicyclo[3.1.0]hexane-3-carboxylic acid ((R)-sec-butyl)-amide] | 0.333 µM |
| NC(=O)n1cc(NC(=O)N2[C@@H]3C[C@@H]3C[C@H]2C(=O)NCCOC(F)(F)F)c2ccccc21 [Example 23, (1R,3S,5R)-2-Aza-bicyclo [3.1.0]hexane-2,3-dicarboxylic acid 2-[(1-carbamoyl-1H-indol-3-yl)-amide] 3-[(2-trifluoromethoxy-ethyl)-amide]] | 0.427 µM |
| CC(=O)c1nn(CC(=O)N2[C@@H]3C[C@@H]3C[C@H]2C(=O)NCCC(C)(C)C)c2ccc(OCc3ncccn3)cc12 [Example 8, (1R,3S,5R)-2-{2-[3-Acetyl-5-(pyrimidin-2-ylmethoxy)-indazol-1-yl]-acetyl}-2-aza-bicyclo[3.1.0]hexane-3-carboxylic acid (3,3-dimethyl-butyl)-amide] | 0.009 µM |
| C[Si](C)(C)CCNC(=O)[C@@H]1C[C@H]2C[C@H]2N1C(=O)Cn1nc(C(N)=O)c2ccncc21 [Example 9, 1-{2-Oxo-2-[(1R,3S,5R)-3-(2-trimethylsilanyl-ethylcarbamoyl)-2-aza-bicyclo[3.1.0]hex-2-yl)-ethyl}-1H-pyrazolo[3,4-c] pyridine-3-carboxylic acid amide] | 0.153 µM |
| CC(=O)c1nn(CC(=O)N2[C@@H]3C[C@@H]3C[C@H]2C(=O)NC(C)C)c2ccc(OCc3ncccn3)cc12 [Example 20, (1R,3S,5R)-2-{2-[3-Acetyl-5-(pyrimidin-2-ylmethoxy)-indazol-1-yl]-acetyl}-2-aza-bicyclo[3.1.0]hexane-3-carboxylic acid isopropyl amide] | 0.328 µM |
| CCNC(=O)[C@@H]1C[C@H]2C[C@H]2N1C(=O)Cn1nc(C(C)=O)c2cc(OCc3ncccn3)ccc21 [Example 13, (1R,3S,5R)-2-{2-[3-Acetyl-5-(pyrimidin-2-ylmethoxy)-indazol-1-yl]-acetyl}-2-aza-bicyclo[3.1.0]hexane-3-carboxylic acid ethylamide] | 0.504 µM |
| CC(=O)c1nn(CC(=O)N2[C@@H]3C[C@@H]3C[C@H]2C(=O)NCCC(F)(F)F)c2cnccc12 [Example 39, (1R,3S,5R)-2-[2-(3-Acetyl-pyrazolo[3,4-c]pyridin-1-yl)-acetyl]-2-aza-bicyclo [3.1.0]hexane-3-carboxylic acid (3,3,3-trifluoro-propyl)-amide] | 5.32 µM |
| COC[C@H](CC(C)(C)C)NC(=O)[C@@H]1C[C@H]2C[C@H]2N1C(=O)Cn1nc(C(N)=O)c2ccccc21 [Example 37, 1-{2-[(1R,3S,5R)-3-((S)-1-Methoxymethyl-3,3-dimethyl-butylcarbamoyl)-2-aza-bicyclo[3.1.0]hex-2-yl]-2-oxo-ethyl}-1H-indazole-3-carboxylic acid amide] | 0.443 µM |
